SMILES strings stand for the structures. Counter-ions that a name gives are not always drawn.

In this assay the test system is MTT (mouse pheochromocytoma). As to the kind of experiment: IC50 of cell viability (ATP content). To be noted: (24 or 48 h). The method in brief: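 After overnight culture at 37°C, 5% CO2 in white 1536-well plates, MTT mouse pheochromocytoma cells were given 23 nl of library compound in DMSO by pintool across 8 concentrations, spanning final 0.5 nM to 46 µM. Following 24 or 48 hrs, CellTiter-Glo luminescence was read after 15 minutes and normalised against positive-control (100%) and DMSO (0%) wells. A four-parameter logistic model provided the IC50.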

Take `O=C(OCC1(COC(=O)c2cccnc2)CCCC(COC(=O)c2cccnc2)(COC(=O)c2cccnc2)C1O)c1cccnc1` [Nicomolol]: the “IC50 of cell viability” value was above 46 µM.
Next, `O=C(NCCO[N+](=O)[O-])c1cccnc1` [Nicorandil]: above 46 µM; `NC(=S)N/N=C/c1cccnc1` [Nicothiazone]: above 46 µM; `Cn1c(NCCN(CCO)CCCc2ccc([N+](=O)[O-])cc2)cc(=O)n(C)c1=O` [Nifekalant]: above 46 µM.
Next, `CC(C)NCC(O)c1ccc([N+](=O)[O-])cc1` (stereo not drawn) [Nifenalol]: above 46 µM.
Next, `CN1N(C2=CC=CC=C2)C(=O)C(=C1/C)/NC(=O)C3=CN=CC=C3` [Nifenazone]: above 46 µM.
In the case of `O=C(N/N=C\c1ccc([N+](=O)[O-])o1)c1ccc(O)cc1` [Nifuroxazide], the “IC50 of cell viability” value is above 46 µM.
Next, `O=C(N/N=C/c1ccc([N+](=O)[O-])o1)c1cc([N+](=O)[O-])cc([N+](=O)[O-])c1O` [Nifursol]: above 46 µM; `C[C@H]1C[S+](=O)([O-])CCN1/N=C\c1ccc([N+](=O)[O-])o1` [Nifurtimox]: above 46 µM; `CCN(CC)C(=O)c1cccnc1` [Nikethamide]: above 46 µM.
Next, `CC1(C)NC(=O)N(c2ccc([N+](=O)[O-])c(C(F)(F)F)c2)C1=O` [Nilutamide]: above 46 µM; `C[S+](=O)([O-])Nc1ccc([N+](=O)[O-])cc1Oc1ccccc1` [Nimesulide]: above 46 µM.
Next, `O=C1NCCN1c1ncc([N+](=O)[O-])s1` [Niridazole]: above 46 µM; `COC(=O)C1=C(C)NC(C)=C(C(=O)OCC(C)C)C1c1ccccc1[N+](=O)[O-]` (stereo not drawn) [Nisoldipine]: above 46 µM; `CC(=O)Nc1ncc([N+](=O)[O-])s1` [Nithiamide]: above 46 µM.
Take `Cc1nc([N+](=O)[O-])cn1-c1ccc([N+](=O)[O-])cc1` [Nitrefazole]: the “IC50 of cell viability” value was above 46 µM.
As for `O=[N+]([O-])c1ccccc1` [Nitrobenzene], the figure is above 46 µM.
As for `O=C1CN(/N=C/c2ccc([N+](=O)[O-])o2)C(=O)N1` [Nitrofurantoin], the figure is above 46 µM.
As for `NC(=O)N/N=C/c1ccc([N+](=O)[O-])o1` [Nitrofurazone], the figure is above 46 µM; as for `O=[N+]([O-])c1ccc(Oc2ccc(N=C=S)cc2)cc1` [Nitroscanate], above 46 µM.
Turning to `CC(C)OC(=O)c1cc(C(=O)OC(C)C)cc([N+](=O)[O-])c1` [Nitrothal-isopropyl], the “IC50 of cell viability” value is above 46 µM.
As for `CN/C(=C\[N+](=O)[O-])NCCSCc1csc(CN(C)C)n1` [Nizatidine], the figure is above 46 µM; as for `CCN(CC)Cc1nccn1-c1ccc([N+](=O)[O-])cc1C(=O)c1ccccc1Cl` [Nizofenone], above 46 µM.
As for `CCCCCCCCC(=O)NCc1ccc(O)c(OC)c1` [Nonanamide, N-[(4-hydroxy-3-methoxyphenyl)methyl]-], the figure is above 46 µM; as for `O=C(O)CCCCCCCC(=O)O` [Nonanedioic acid], above 46 µM; as for `C[C@]12CC[C@H]3[C@@H](CCC4=CC(=O)CC[C@@H]43)[C@@H]1CC[C@@H]2O` [Norandrostenolone], above 46 µM.
Next, `NC[C@H](O)c1ccc(O)c(O)c1` [Norepinephrine bitartrate]: above 46 µM.
For `C[C@@]12CC[C@H]\3[C@@H](CC\C4=C3CCC(=O)C4)[C@H]1CC[C@]2(O)C#C` [Norethynodrel], the “IC50 of cell viability” value is above 46 µM.
Next, `CCN1\C=C(\C(O)=O)C(=O)C2=C1C=C(N3CCNCC3)C(=C2)F` [Norfloxacin]: above 46 µM.
Next, `C#C[C@]1(OC(=O)CCCCCC)CC[C@H]2C3CCC4=CC(=O)CC[C@@H]4[C@H]3CC[C@@]21C` (stereo partly drawn) [Noristerat]: above 46 µM.
Next, `Oc1ccccc1/C=N/Cc1ccccc1` [Norletimol]: above 46 µM; `O[C@H]1\C=C/C2[C@H]3CC4=CC=C(O)C5=C4[C@@]2(CCN3)[C@H]1O5` (stereo partly drawn) [Normorphine]: above 46 µM; `COc1ccc2c(c1OC)C(=O)O[C@H]2[C@H]1c2c(cc3c(c2OC)OCO3)CCN1C` [Noscapine]: above 46 µM.
Regarding `[Na+].CO[C@H]1[C@@H](OC(N)=O)[C@@H](O)[C@H](OC2=C(C)C3=C(C=C2)\C(=C(\NC(=O)C4=CC(=C([O-])C=C4)CC=C(C)C)C(=O)O3)O)OC1(C)C` [Novobiocin sodium salt], the “IC50 of cell viability” value was above 46 µM.
On to `C[C@H]1[C@H](O)[C@@H](C)/C=C/C=C/CC/C=C/C=C/C=C/C=C/[C@H](O[C@@H]2O[C@H](C)[C@@H](O)[C@H](N)[C@@H]2O)C[C@@H]2O[C@](O)(C[C@@H](O)[C@H](O)CC[C@@H](O)C[C@@H](O)C[C@@H](O)CC(=O)O[C@H]1C)C[C@H](O)[C@H]2C(=O)O` [Nystatin], for which the “IC50 of cell viability” value was above 46 µM.
Next, `CCCCCCCCOc1ccc(C(=O)c2ccccc2)c(O)c1` [OCTABENZONUM]: above 46 µM.
As for `CCOc1cc(-c2nccc3cc(OC)c(OC)cc23)cc(OCC)c1OCC` [OCTAVERINUM], the figure is above 46 µM; as for `CC(C)CCCC(C)N` (stereo not drawn) [OCTODRINUM], above 46 µM.
As for `CC(C)(C)CC(C)(C)c1ccc(O)c(-n2nc3ccccc3n2)c1` [OCTRIZOLUM], the figure is above 46 µM.
On to `CCCCCCCCCCC(CO)CCCCCCCC` (stereo not drawn) [OCTYLDODECANOL], for which the “IC50 of cell viability” value is above 46 µM.
As for `CCCCCCCCOc1ccccc1C(=O)Nc1ccc(C(=O)OCC[N+](C)(CC)CC)cc1` [OCTYLONIUM BROMIDE], the figure is above 46 µM; as for `CCCC1=NC(=C([N]1CC2=CC=C(C=C2)C3=CC=CC=C3C4=N[NH]N=N4)C(=O)OCC/5=C(C)/OC(=O)O5)C(C)(C)O` [OLMESARTAN MEDOXOMIL], above 46 µM; as for `CN(C)CC/C=C1\c2ccccc2COc2ccc(CC(=O)O)cc21` [OLOPATADINE HYDROCHLORIDE], above 46 µM.
Next, `O=C([O-])c1cc(/N=N/c2ccc(O)c(C(=O)[O-])c2)ccc1O` [OLSALAZINE SODIUM]: above 46 µM; `CCN(CC)c1ccc(/N=N/c2ccc([S+](=O)([O-])N(C)C)cc2)c([S+](=O)([O-])NCC[n+]2ccccc2)c1` [ORANGE OIL]: above 46 µM; `CCCCCCCCCCCC(CC1OC(=O)C1CCCCCC)OC(=O)C(CC(C)C)NC=O` (stereo not drawn) [ORLISTAT]: above 46 µM.
As for `COc1ccc2c(c1)OC(C)(C)C(c1ccccc1)C2c1ccc(OCCN2CCCC2)cc1` (stereo not drawn) [ORMELOXIFENUM], the figure is above 46 µM; as for `COc1cc(C)c(Cc2cnc(N)nc2N)cc1OC` [ORMETOPRIM], above 46 µM.
Take `Cc1ccccc1C(OCCN(C)C)c1ccccc1.O=C(O)CC(O)(CC(=O)O)C(=O)O` (stereo not drawn) [ORPHENADRINE CITRATE]: the “IC50 of cell viability” value is above 46 µM.
`CCOC(=O)C/1=C/C(OC(CC)CC)C(NC(C)=O)C(N)C1.OC(C(O)C(O)=O)C(O)=O` (stereo not drawn) [OSELTAMIVIR TARTRATE]: the “IC50 of cell viability” value is above 46 µM.
Next, `O=C([O-])c1nc(O)nc(O)n1` [OTERACIL POTASSIUM]: above 46 µM; `CC1OC(O[C@H]2C[C@@H](O)[C@]3(CO)[C@H]4[C@H](O)C[C@]5(C)[C@@H](C6=CC(=O)OC6)CC[C@]5(O)[C@@H]4CC[C@]3(O)C2)C(O)C(O)C1O` (stereo partly drawn) [OUABAIN]: above 46 µM.
As for `CC12CCC3C4CCC(=O)C(O)=C4CCC3C1CCC2OC(=O)CCC1CCCC1` (stereo not drawn) [OXABOLONE CIPIONATE], the figure is above 46 µM; as for `CC(=O)N1CC(O)CC1C(=O)O` (stereo not drawn) [OXACEPROLUM], above 46 µM.
Next, `O=C1[O][Pt]2([NH]C3CCCCC3[NH]2)[O]C1=O` (stereo not drawn) [OXALIPLATIN]: above 46 µM; `NC1CCCCC1N.O=C([O-])C(=O)[O-].[Pt+2]` (stereo not drawn) [OXALIPLATIN]: above 46 µM.
As for `CC(CC(=O)O)(CC(=O)O)C(=O)O.CCN(CC)CCOCCOC(=O)C(CC)(CC)c1ccccc1` [OXELADIN TANNATE], the “IC50 of cell viability” value was above 46 µM.
Next, `NC(C(=O)O)c1ccc(O)cc1` (stereo not drawn) [OXFENICINUM]: above 46 µM; `Clc1ccc(CO/N=C(\Cn2ccnc2)c2ccc(Cl)cc2Cl)c(Cl)c1.O=[N+]([O-])O` [OXICONAZOLE NITRATE]: above 46 µM.
Next, `Cl.NCCc1cc(O)c(O)cc1O` [OXIDOPAMINE HYDROCHLORIDE]: above 46 µM.
As for `CCN1\C=C(\C(O)=O)C(=O)C2=C1C=C3OCOC3=C2` [OXOLINIC ACID], the figure is above 46 µM; as for `CC(CN(C)C)CN1c2ccccc2[S+](=O)([O-])c2ccccc21` (stereo not drawn) [OXOMEMAZINE HCl], above 46 µM.
Take `Cn1c(=O)c2[nH]cnc2n(C)c1=O` [OXTRIPHYLLINE]: the “IC50 of cell viability” value was above 46 µM.

For the origin of these results see the supplement of paper PMC3974653.
